Laboratory results published in patent US12391686B2, “Compounds and uses thereof” (Foghorn Therapeutics Inc., priority 2019, dated 2025).

Assays:
[1] = molecular target: T1, BRD9 bromodomain (Flag-BRD9 P133-K239; Swiss Prot Q9H8M2) (Homo sapiens, UniProt Q9H8M2); assay: BRD9 Bromodomain TR-FRET Competition Binding Assay; conditions: competition with biotinylated BRD9 ligand; 90 minutes at room temperature
T1 construct: His-Flag-BRD9 (P133-K239); Swiss Prot Q9H8M2; His6 with TEV site (mgsshhhhhhenlyfq/) (N, cleaved yes); made in house
T1 sequence (Q9H8M2 133-239): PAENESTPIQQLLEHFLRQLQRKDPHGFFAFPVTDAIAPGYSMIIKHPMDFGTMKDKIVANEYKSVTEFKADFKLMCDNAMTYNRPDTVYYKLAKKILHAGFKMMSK
Method: Procedure: His-Flag-BRD9 (P133-K239; Swiss Prot Q9H8M2; SEQ ID NO:1 mgsshhhhhhenlyfq/gdykddddkgslevlfqg/[…] […]) was cloned, expressed, purified, and then treated with TEV protease. Cleaved His tag was removed by purification. The binding of a biotinylated small molecule ligand of BRD9 was assessed via the LANCE® TR-FRET platform (PerkinElmer), and the compounds were assayed for inhibitory activity against this interaction.
Results: A mixture of biotinylated-ligand and SureLight™ Allophycocyanin-Streptavidin (APC-SA, PerkinElmer AD0201) in 50 mM HEPES (pH 7.4), 50 mM NaCl, 1 mM TCEP (pH 7), 0.01% (v/v) Tween-20, 0.01% (w/v) bovine serum albumin was added to a white 384-well PerkinElmer Proxiplate Plus plate. DMSO or 3-fold serially diluted compounds were then added to the Proxiplate followed by addition of Flag-BRD9. After a 10-minute incubation at room temperature, Eu-W1024 anti-FLAG (PerkinElmer, AD0273) was added. The final reaction mixture that contained 3.75 nM biotinylated ligand, 3 nM Flag-BRD9, 7.5 nM SureLight™ Allophycocyanin-Streptavidin, and 0.2 nM Eu-W1024 anti-FLAG was incubated at room temperature for 90 minutes.
The plates were then read on a PerkinElmer Envision plate reader to determine the ratio of emission at 665 nm over 615 nm. […]

[2] = molecular target: T2, Nanoluciferase-BRD9 fusion protein (3×FLAG-NLuc-BRD9) in SYO-1 cells (Homo sapiens, UniProt Q9H8M2); assay: SYO1 BRD9 NanoLuc Degradation Assay; type: cell-based; conditions: 6 hours; SYO-1 cells expressing 3×FLAG-NLuc-BRD9; top dose 1 μM; read-out: SYO1 BRD9-NanoLuc degradation IC50
T2 construct: expressed in transfected cells; host or cells: SYO-1
T2 sequence (Q9H8M2 1-597): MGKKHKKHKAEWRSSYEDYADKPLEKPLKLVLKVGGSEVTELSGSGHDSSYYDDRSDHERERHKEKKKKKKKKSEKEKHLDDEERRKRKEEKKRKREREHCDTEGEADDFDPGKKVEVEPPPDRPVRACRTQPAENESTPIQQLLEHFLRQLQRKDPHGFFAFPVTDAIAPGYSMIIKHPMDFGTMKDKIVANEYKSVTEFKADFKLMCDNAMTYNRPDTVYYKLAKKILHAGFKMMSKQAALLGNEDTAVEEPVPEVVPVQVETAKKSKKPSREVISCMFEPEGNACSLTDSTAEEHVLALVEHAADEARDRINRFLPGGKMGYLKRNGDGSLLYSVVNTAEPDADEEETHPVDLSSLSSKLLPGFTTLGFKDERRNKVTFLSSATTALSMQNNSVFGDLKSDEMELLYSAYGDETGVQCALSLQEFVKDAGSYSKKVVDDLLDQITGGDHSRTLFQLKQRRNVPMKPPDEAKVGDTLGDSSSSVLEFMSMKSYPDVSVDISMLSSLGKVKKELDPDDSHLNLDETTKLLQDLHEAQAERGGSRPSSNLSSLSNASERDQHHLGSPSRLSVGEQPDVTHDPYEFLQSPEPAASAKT
How it was run: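 NanoLuc signal, read by Nano-Glo luminescence after 6 h compound exposure, gives % inhibition against DMSO-treated cells (high control) and cells given 1 μM of a standard BRD9 degrader (low control). Test compounds ran as 10-point 3-fold series, top 1 μM final, in duplicate on SYO-1 cells stably expressing 3×FLAG-NLuc-BRD9.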

Compound | IC50 [1] [nM] | DC50 [2] [nM]
COc1cc(-c2cn(C)c(=O)c3cnc(NCCCCCCCCNC(=O)COc4cccc5c4C(=O)N(C4CCC(=O)NC4=O)C5=O)cc23)cc(OC)c1CN(C)C (stereo not shown) [Compound D5, N-[8-[(5-[4-[(dimethylamino)methyl]-3,5-dimethoxyphenyl]-7-methyl-8-oxo-2,7-naphthyridin-3-yl)amino]octyl]-2-[[2-(2,6-dioxopiperidin-3-yl)-1,3-dioxoisoindol-4-yl]oxy]acetamide formic acid] | ≥ 10 | ≥ 100
COc1cc(-c2cn(C)c(=O)c3cnc(NCCCCCOc4cccc5c4C(=O)N(C4CCC(=O)NC4=O)C5=O)cc23)c(OC)cc1CN(C)C (stereo not shown) [Compound D6, 4-((5-((5-(4-((dimethylamino)methyl)-2,5-dimethoxyphenyl)-7-methyl-8-oxo-7,8-dihydro-2,7-naphthyridin-3-yl)amino)pentyl)oxy)-2-(2,6-dioxopiperidin-3-yl)isoindoline-1,3-dione formic acid] | ≥ 10 | ≥ 10
CNc1cc2c(=O)n(C)cc(-c3cc(OC)c(CN4CC(C(=O)NCCCCCOc5cccc6c5C(=O)N(C5CCC(=O)NC5=O)C6=O)C4)c(OC)c3)c2cn1 (stereo not shown) [Compound D7, 1-([2,6-dimethoxy-4-[2-methyl-7-(methylamino)-1-oxo-2,6-naphthyridin-4-yl]phenyl]methyl)-N-(5-[[2-(2,6-dioxopiperidin-3-yl)-1,3-dioxoisoindol-4-yl]oxy]pentyl)azetidine-3-carboxamide formic acid] | < 10 | < 10
COc1cc(-c2cn(C)c(=O)c3cc(NCCCCCCCCNC(=O)COc4cccc5c4C(=O)N(C4CCC(=O)NC4=O)C5=O)ncc23)cc(OC)c1CN(C)C (stereo not shown) [Compound D8, N-[8-[(8-[4-[(dimethylamino)methyl]-3,5-dimethoxyphenyl]-6-methyl-5-oxo-2,6-naphthyridin-3-yl)amino]octyl]-2-[[2-(2,6-dioxopiperidin-3-yl)-1,3-dioxoisoindol-4-yl]oxy]acetamide] | ≥ 10 | ≥ 10
COc1cc(-c2cn(C)c(=O)c3cc(NC(=O)CCOCCOCCNc4cccc5c4C(=O)N(C4CCC(=O)NC4=O)C5=O)ncc23)cc(OC)c1CN(C)C (stereo not shown) [Compound D9, N-(8-[4-[(dimethylamino)methyl]-3,5-dimethoxyphenyl]-6-methyl-5-oxo-2,6-naphthyridin-3-yl)-3-[2-(2-[[2-(2,6-dioxopiperidin-3-yl)-1,3-dioxoisoindol-4-yl]amino]ethoxy)ethoxy]propanamide] | ≥ 100 | ≥ 1000
COc1cc(-c2cn(C)c(=O)c3cnc(NCCOCCOCCNc4cccc5c4C(=O)N(C4CCC(=O)NC4=O)C5=O)cc23)cc(OC)c1CN(C)C (stereo not shown) [Compound D10, 4-[[2-(2-[2-[(5-[4-[(dimethylamino)methyl]-3,5-dimethoxyphenyl]-7-methyl-8-oxo-2,7-naphthyridin-3-yl)amino]ethoxy]ethoxy)ethyl]amino]-2-(2,6-dioxopiperidin-3-yl)isoindole-1,3-dione formic acid] | ≥ 10 | ≥ 10
COc1cc(-c2cn(C)c(=O)c3cnc(NC(=O)CCOCCOCCNc4cccc5c4C(=O)N(C4CCC(=O)NC4=O)C5=O)cc23)cc(OC)c1CN(C)C (stereo not shown) [Compound D11, N-(5-(4-((dimethylamino)methyl)-3,5-dimethoxyphenyl)-7-methyl-8-oxo-7,8-dihydro-2,7-naphthyridin-3-yl)-3-(2-(2-((2-(2,6-dioxopiperidin-3-yl)-1,3-dioxoisoindolin-4-yl)amino)ethoxy)ethoxy)propanamide formic acid] | ≥ 10 | ≥ 100
COc1cc(-c2cn(C)c(=O)c3cc(N(C)CC(=O)NCCCCCOc4cccc5c4C(=O)N(C4CCC(=O)NC4=O)C5=O)ncc23)cc(OC)c1CN(C)C (stereo not shown) [Compound D12, 2-[(8-[4-[(dimethylamino)methyl]-3,5-dimethoxyphenyl]-6-methyl-5-oxo-2,6-naphthyridin-3-yl)(methyl)amino]-N-(5-[[2-(2,6-dioxopiperidin-3-yl)-1,3-dioxoisoindol-4-yl]oxy]pentyl)acetamide formic acid] | < 10 | ≥ 10
COc1cc(-c2cn(C)c(=O)c3cc(NC(=O)CCOCCOCCNc4ccc5c(c4)C(=O)N(C4CCC(=O)NC4=O)C5=O)ncc23)cc(OC)c1CN(C)C (stereo not shown) [Compound D13, N-(8-[4-[(dimethylamino)methyl]-3,5-dimethoxyphenyl]-6-methyl-5-oxo-2,6-naphthyridin-3-yl)-3-[2-(2-[[2-(2,6-dioxopiperidin-3-yl)-1,3-dioxoisoindol-5-yl]amino]ethoxy)ethoxy]propanamide formic acid] | ≥ 100 | ≥ 1000
COc1cc(-c2cn(C)c(=O)c3cnc(NC(=O)CCOCCOCCNc4ccc5c(c4)C(=O)N(C4CCC(=O)NC4=O)C5=O)cc23)cc(OC)c1CN(C)C (stereo not shown) [Compound D14, N-(5-(4-((dimethylamino)methyl)-3,5-dimethoxyphenyl)-7-methyl-8-oxo-7,8-dihydro-2,7-naphthyridin-3-yl)-3-(2-(2-((2-(2,6-dioxopiperidin-3-yl)-1,3-dioxoisoindolin-5-yl)amino)ethoxy)ethoxy)propanamide formic acid] | ≥ 10 | ≥ 100
CNc1cc2c(=O)n(C)cc(-c3cc(OC)c(CN4CCC5(CC4)CN(C(=O)CCCCOc4cccc6c4C(=O)N(C4CCC(=O)NC4=O)C6=O)CCO5)c(OC)c3)c2cn1 (stereo not shown) [Compound D15, 4-([5-[9-([2,6-dimethoxy-4-[2-methyl-7-(methylamino)-1-oxo-2,6-naphthyridin-4-yl]phenyl]methyl)-1-oxa-4,9-diazaspiro[5.5]undecan-4-yl]-5-oxopentyl]oxy)-2-(2,6-dioxopiperidin-3-yl)isoindole-1,3-dione formic acid] | < 10 | < 10
CNc1cc2c(=O)n(C)cc(-c3cc(OC)c(CN4CCC5(CC4)CN(C(=O)CCCOc4cccc6c4C(=O)N(C4CCC(=O)NC4=O)C6=O)CCO5)c(OC)c3)c2cn1 (stereo not shown) [Compound D16, 4-(4-(9-(2,6-dimethoxy-4-(2-methyl-7-(methylamino)-1-oxo-1,2-dihydro-2,6-naphthyridin-4-yl)benzyl)-1-oxa-4,9-diazaspiro[5.5]undecan-4-yl)-4-oxobutoxy)-2-(2,6-dioxopiperidin-3-yl)isoindoline-1,3-dione formic acid] | < 10 | < 10
CNc1cc2c(=O)n(C)cc(-c3cc(OC)c(CN4CCN(C(=O)CCCOc5cccc6c5C(=O)N(C5CCC(=O)NC5=O)C6=O)CC4)c(OC)c3)c2cn1 (stereo not shown) [Compound D17, 4-(4-(4-(2,6-dimethoxy-4-(2-methyl-7-(methylamino)-1-oxo-1,2-dihydro-2,6-naphthyridin-4-yl)benzyl)piperazin-1-yl)-4-oxobutoxy)-2-(2,6-dioxopiperidin-3-yl)isoindoline-1,3-dione formic acid] | ≥ 10 | < 10
COc1cc(-c2cn(C)c(=O)c3cnc(N(C)C)cc23)cc(OC)c1CN1CCC2(CC1)CN(C(=O)CCCOc1cccc3c1C(=O)N(C1CCC(=O)NC1=O)C3=O)CCO2 (stereo not shown) [Compound D18, 4-(4-(9-(4-(6-(dimethylamino)-2-methyl-1-oxo-1,2-dihydro-2,7-naphthyridin-4-yl)-2,6-dimethoxybenzyl)-1-oxa-4,9-diazaspiro[5.5]undecan-4-yl)-4-oxobutoxy)-2-(2,6-dioxopiperidin-3-yl)isoindoline-1,3-dione formic acid] | < 10 | < 10
